Measured values from publication PMC9516332 (Frontiers in Oncology, 2022).
Like-named read-outs stand apart in the source and are kept apart here.

Assays:
AP-1060 (ETV6-NTRK3) = experiment: Cell viability assay; details: read-out: IC50 in cell proliferation assay
134 cancer cell lines = experiment: Cell viability assay (ATPlite, 72 hours), IC50 on cancer cell line panel

FC(F)(F)c1ccc(CNc2ccc(Cc3c[nH]c4ncc(Cl)cc34)cn2)cn1 [pexidartinib]
IC50 (AP-1060 (ETV6-NTRK3)): > 31.6 µM
IC50 (134 cancer cell lines; HEC-6, read-out: IC50 in cell proliferation assay, HEC-6 cell line (EGFR p.A289V)): > 31.6 µM
IC50 (134 cancer cell lines; Homo sapiens, 769-P, read-out: IC50 in cell proliferation assay, cell line 769-P): > 31.6 µM
IC50 (134 cancer cell lines; Homo sapiens, 786-0, read-out: IC50 in cell proliferation assay, cell line 786-O): > 31.6 µM
IC50 (134 cancer cell lines; Homo sapiens, A 172, read-out: IC50 in cell proliferation assay, cell line A-172): > 31.6 µM
IC50 (134 cancer cell lines; Homo sapiens, A204, read-out: IC50 in cell proliferation assay, cell line A-204): 0.935 µM
IC50 (134 cancer cell lines; Homo sapiens, A498, read-out: IC50 in cell proliferation assay, cell line A-498): > 31.6 µM
IC50 (134 cancer cell lines; Homo sapiens, A549, read-out: IC50 in cell proliferation assay, cell line A-549): > 31.6 µM
IC50 (134 cancer cell lines; Homo sapiens, A704, read-out: IC50 in cell proliferation assay, cell line A-704): > 31.6 µM
IC50 (134 cancer cell lines; Homo sapiens, A-375, read-out: IC50 in cell proliferation assay, cell line A-375 (BRAF p.V600E)): > 31.6 µM
IC50 (134 cancer cell lines; Homo sapiens, A-427, read-out: IC50 in cell proliferation assay, cell line A-427): 24.1 µM
IC50 (134 cancer cell lines; Homo sapiens, ACHN, read-out: IC50 in cell proliferation assay, cell line ACHN): > 31.6 µM
IC50 (134 cancer cell lines; Homo sapiens, AN3-CA, read-out: IC50 in cell proliferation assay, cell line AN3-CA (FGFR2 p.N549K)): 25.3 µM
IC50 (134 cancer cell lines; Homo sapiens, ASPC1, read-out: IC50 in cell proliferation assay, cell line AsPC-1): > 31.6 µM
IC50 (134 cancer cell lines; Homo sapiens, AU565, read-out: IC50 in cell proliferation assay, cell line AU565 (ERBB2 amplification)): 25.4 µM
IC50 (134 cancer cell lines; Homo sapiens, BT-20, read-out: IC50 in cell proliferation assay, cell line BT-20): > 31.6 µM
IC50 (134 cancer cell lines; Homo sapiens, BT-474, read-out: IC50 in cell proliferation assay, cell line BT-474 (ERBB2 amplification)): > 31.6 µM
IC50 (134 cancer cell lines; Homo sapiens, BT-549, read-out: IC50 in cell proliferation assay, cell line BT-549): > 31.6 µM
IC50 (134 cancer cell lines; Homo sapiens, BXPC-3, read-out: IC50 in cell proliferation assay, cell line BxPC-3): > 31.6 µM
IC50 (134 cancer cell lines; Homo sapiens, C-33-A, read-out: IC50 in cell proliferation assay, cell line C-33 A): > 31.6 µM
IC50 (134 cancer cell lines; Homo sapiens, CAL-27, read-out: IC50 in cell proliferation assay, cell line CAL-27): > 31.6 µM
IC50 (134 cancer cell lines; Homo sapiens, CCF-STTG1, read-out: IC50 in cell proliferation assay, cell line CCF-STTG1): > 31.6 µM
IC50 (134 cancer cell lines; Homo sapiens, CCRF-CEM, read-out: IC50 in cell proliferation assay, cell line CCRF-CEM): > 31.6 µM
IC50 (134 cancer cell lines; Homo sapiens, COLO 205, read-out: IC50 in cell proliferation assay, cell line COLO 205 (BRAF p.V600E)): > 31.6 µM
IC50 (134 cancer cell lines; Homo sapiens, COLO-829, read-out: IC50 in cell proliferation assay, cell line COLO 829 (BRAF p.V600E)): > 31.6 µM
IC50 (134 cancer cell lines; Homo sapiens, DLD-1, read-out: IC50 in cell proliferation assay, cell line DLD-1): > 31.6 µM
IC50 (134 cancer cell lines; Homo sapiens, DU-4475, read-out: IC50 in cell proliferation assay, cell line DU4475 (BRAF p.V600E)): > 31.6 µM
IC50 (134 cancer cell lines; Homo sapiens, Daoy, read-out: IC50 in cell proliferation assay, cell line Daoy): > 31.6 µM
IC50 (134 cancer cell lines; Homo sapiens, DoTc2-4510, read-out: IC50 in cell proliferation assay, cell line DoTc2 4510): > 31.6 µM
IC50 (134 cancer cell lines; Homo sapiens, EOL1, read-out: IC50 in cell proliferation assay, cell line EoL-1 (FIP1L1-PDGFRA)): 0.01 µM
IC50 (134 cancer cell lines; Homo sapiens, FaDu, read-out: IC50 in cell proliferation assay, cell line FaDu): > 31.6 µM
IC50 (134 cancer cell lines; Homo sapiens, G-361, read-out: IC50 in cell proliferation assay, cell line G-361 (BRAF p.V600E)): 23.6 µM
IC50 (134 cancer cell lines; Homo sapiens, HCC827, read-out: IC50 in cell proliferation assay, cell line HCC827 (EGFR exon19del)): > 31.6 µM
IC50 (134 cancer cell lines; Homo sapiens, HCC4006, read-out: IC50 in cell proliferation assay, cell line HCC4006 (EGFR exon19del)): > 31.6 µM
IC50 (134 cancer cell lines; Homo sapiens, HCT-15, read-out: IC50 in cell proliferation assay, cell line HCT 15): > 31.6 µM
IC50 (134 cancer cell lines; Homo sapiens, HCT-116, read-out: IC50 in cell proliferation assay, cell line HCT 116): > 31.6 µM
IC50 (134 cancer cell lines; Homo sapiens, HEC-1, read-out: IC50 in cell proliferation assay, HEC-1 cell line): > 31.6 µM
IC50 (134 cancer cell lines; Homo sapiens, HEC-1B, read-out: IC50 in cell proliferation assay, HEC-1-B cell line (EGFR p.A864V)): > 31.6 µM
IC50 (134 cancer cell lines; Homo sapiens, HL-60, read-out: IC50 in cell proliferation assay, HL-60 cell line): > 31.6 µM
IC50 (134 cancer cell lines; Homo sapiens, HT, read-out: IC50 in cell proliferation assay, HT cell line): > 31.6 µM
IC50 (134 cancer cell lines; Homo sapiens, HT-1080, read-out: IC50 in cell proliferation assay, HT-1080 cell line): > 31.6 µM
IC50 (134 cancer cell lines; Homo sapiens, Hs746T, read-out: IC50 in cell proliferation assay, Hs 746.T cell line (MET exon14skip + amplification)): > 31.6 µM
IC50 (134 cancer cell lines; Homo sapiens, Hs-578T, read-out: IC50 in cell proliferation assay, Hs 578T cell line): 25.7 µM
IC50 (134 cancer cell lines; Homo sapiens, HuTu80, read-out: IC50 in cell proliferation assay, HuTu 80 cell line): 22.8 µM
IC50 (134 cancer cell lines; Homo sapiens, J82, read-out: IC50 in cell proliferation assay, J82 cell line): > 31.6 µM
IC50 (134 cancer cell lines; Homo sapiens, Jurkat E6.1, read-out: IC50 in cell proliferation assay, Jurkat E6.1 cell line): > 31.6 µM
IC50 (134 cancer cell lines; Homo sapiens, K562, read-out: IC50 in cell proliferation assay, K-562 cell line): > 31.6 µM
IC50 (134 cancer cell lines; Homo sapiens, KATO III, read-out: IC50 in cell proliferation assay, KATO III cell line (FGFR2 amplification)): 10.1 µM
IC50 (134 cancer cell lines; Homo sapiens, KG-1, read-out: IC50 in cell proliferation assay, KG-1 cell line (FGFR1OP2-FGFR1)): 7.51 µM
IC50 (134 cancer cell lines; Homo sapiens, KLE, read-out: IC50 in cell proliferation assay, KLE cell line): > 31.6 µM
IC50 (134 cancer cell lines; Homo sapiens, KMS-11, read-out: IC50 in cell proliferation assay, KMS-11 cell line (FGFR3 p.Y373C)): > 31.6 µM
IC50 (134 cancer cell lines; Homo sapiens, KU812, read-out: IC50 in cell proliferation assay, Ku812 cell line): > 31.6 µM
IC50 (134 cancer cell lines; Homo sapiens, Kasumi 1, read-out: IC50 in cell proliferation assay, Kasumi-1 cell line (KIT p.N822K)): 0.228 µM
IC50 (134 cancer cell lines; Homo sapiens, LC-2-ad, read-out: IC50 in cell proliferation assay, LC-2/ad cell line (CCDC6-RET)): > 31.6 µM
IC50 (134 cancer cell lines; Homo sapiens, LNCaP-Clone-FGC, read-out: IC50 in cell proliferation assay, LNCaP clone FGC cell line): > 31.6 µM
IC50 (134 cancer cell lines; Homo sapiens, LS174T, read-out: IC50 in cell proliferation assay, LS174T cell line): > 31.6 µM
IC50 (134 cancer cell lines; Homo sapiens, LS-411N, read-out: IC50 in cell proliferation assay, LS411N cell line (BRAF p.V600E)): > 31.6 µM
IC50 (134 cancer cell lines; Homo sapiens, LoVo, read-out: IC50 in cell proliferation assay, LoVo cell line): > 31.6 µM
IC50 (134 cancer cell lines; Homo sapiens, MCF7, read-out: IC50 in cell proliferation assay, MCF-7 cell line): 18.1 µM
IC50 (134 cancer cell lines; Homo sapiens, MDA-MB-231, read-out: IC50 in cell proliferation assay, MDA-MB-231 cell line): > 31.6 µM
IC50 (134 cancer cell lines; Homo sapiens, MDA-MB-453, read-out: IC50 in cell proliferation assay, MDA-MB-453 cell line): > 31.6 µM
IC50 (134 cancer cell lines; Homo sapiens, MDA-MB-468, read-out: IC50 in cell proliferation assay, MDA-MB-468 cell line): > 31.6 µM
IC50 (134 cancer cell lines; Homo sapiens, MG-63, read-out: IC50 in cell proliferation assay, MG-63 cell line): > 31.6 µM
IC50 (134 cancer cell lines; Homo sapiens, MIA PaCa-2, read-out: IC50 in cell proliferation assay, MIA PaCa-2 cell line): > 31.6 µM
IC50 (134 cancer cell lines; Homo sapiens, MKN-45, read-out: IC50 in cell proliferation assay, MKN45 cell line (MET amplification)): > 31.6 µM
IC50 (134 cancer cell lines; Homo sapiens, MOLM-13, read-out: IC50 in cell proliferation assay, MOLM-13 cell line (FLT3 ITD)): 0.191 µM
IC50 (134 cancer cell lines; Homo sapiens, MOLT-4, read-out: IC50 in cell proliferation assay, MOLT-4 cell line): > 31.6 µM
